Results taken from patent US20090264528A1, “SERINE PALMITOYLCOA TRANSFERASE (SPT) INHIBITION BY MYRIOCIN OR GENETIC DEFICIENCY DECREASES CHOLESTEROL ABSORPTION” (The Research Foundation of State University of New York, priority 2008, published 2009).
“Also recorded” adds a separate entry of the source.

Columns and labels:
ABCA1 mRNA = experiment: Real-time PCR, ABCA1 mRNA; type: in vivo, mouse; conditions: for decrease of ABCA1 mRNA levels: liver, P<0.05; for decrease of ABCA1 mRNA levels compared with controls: small intestine, P<0.01
Method: (§1) FIGS. 9A-F depict that Mouse small intestine and liver NPC1L1, ABCG5/G8, and ABCA1 mRNA measurements. NPC1L1, ABCG5/G8, and ABCA1 mRNA levels were measured by real-time PCR as described in “Methods and Materials.” FIG. 9A, jejunum from WT mice with or without myriocin treatment; FIG. 9B, jejunum from apoE KO mice with or without myriocin treatment; FIG. 9C, jejunum from WT and Sptlc1^+/− mice; FIG. 9D, liver from WT mice with or without myriocin treatment; FIG. 9E, liver from apoE KO mice with or without myriocin treatment; FIG. 9F, liver from WT and Sptlc1^+/− mice. Values are mean±SD, n=5. *P<0.01.
(§2) Real-time PCR examined genes' expression: Mice were sacrificed by cervical dislocation. Jejunum was dissected, and total RNA extracted with Trizol (Invitrogen). cDNA was synthesized with an Invitrogen kit. Polymerase chain reaction (PCR) was performed on a total volume of 20 microl with the sybergreen kit from Applied Biosystems, 18S being used as an internal control. The amplification program consisted of activation at 95 degrees C. for 10 minutes, followed by 40 amplification cycles: 95 degrees C. for 15 seconds, 60 degrees C. for 1 minute. Each sample was triplicated. The genes' relative expression was expressed as mean±SD. The primers are located in the below table which lists the name, sequence, and sequence identification number.
(§3) For further elucidation of the possible mechanisms for cholesterol absorption reduction in the SPT-deficient small intestine, NPC1L1, ABCG5/G8, and ABCA1 mRNA levels in myriocin-treated WT, apoE KO, and Sptlc1^+/− mice, as well as in controls were measured. […] Moreover, intestinal MTP activity was not influenced by SPT deficiency (data not shown). Also, the liver mRNA levels were measured to find that myriocin treatment or Sptlc1 deficiency has no influence on ABCG5/G8 mRNA levels […]. […] NPC1L1 mRNA in WT or Sptlc1^+/− livers were not detected (data not shown).

small intestine = experiment: Small intestine morphology, hematoxylin and eosin staining; type: in vivo, mouse; conditions: WT and apoE KO mice after myriocin treatment
From the text: The small intestine was dissected out and put into 4% paraformaldehyde for fixation overnight. The tissue was then sliced (10 micrometer thick). Each slice was deparaffinized and stained with hematoxylin and eosin. The morphology was checked by microscope. WT mice fed chow diet (FIGS. 2A, 2B) or chow diet plus myriocin (FIGS. 2C, 2D). FIGS. 2A and 2C are at 10× magnification, while FIGS. 2B and 2D are at 40× magnification.
The small intestine was dissected out and put into 4% paraformaldehyde for fixation overnight. The tissue was then sliced (10 micrometer thick). Each slice was deparaffinized and stained with hematoxylin and eosin. The morphology was checked by microscope. apoE KO mice fed chow diet (FIGS. 3A, 3B) or chow diet plus myriocin (FIGS. 3C, 3D). FIGS. 3A and 3C are at 10× magnification, while FIGS. 3B and 3D are at 40× magnification.
Mouse small intestine hematoxylin and eosin staining: The small intestine was dissected out and put into 4% paraformaldehyde for fixation overnight. The tissue was then sliced (10 micro m thick). Each slice was deparaffinized and stained with hematoxylin and eosin.
To investigate whether myriocin treatment or Sptlc1^+/− had any impact on small intestine morphology, intestinal sections were stained with hematoxylin and eosin. As shown in FIGS. 2 through 4, neither myriocin treatment nor Sptlc1^+/− influenced the morphology of the small intestine.

enterocytes = experiment: Mouse enterocyte lipid measurement; type: in vivo
Method: The mechanisms responsible for decreased cholesterol absorption in myriocin-treated or Sptlc1^+/− mice were explored. First, lipid levels were measured in enterocytes isolated from myriocin-treated and Sptlc1^+/− mice, as well as controls.

ABCG5 mRNA = experiment: Real-time PCR, ABCG5 mRNA; type: in vivo, mouse; conditions: for increase of ABCG5 mRNA levels compared with controls: small intestine, P<0.01
Method: as §1, §2, §3

cholesterol absorption = experiment: Absorption of [14C]cholesterol after a single gavage (intestine, liver, bile, plasma); type: in vivo, mouse; conditions: 24 hours after single gavage, mean ± SD, n=5
Method: Cholesterol absorption studies: A classical fecal dual-isotope ratio method was used for the cholesterol absorption study. Briefly, a mixture of [^14C]-labeled (0.1 microCi) and unlabeled cholesterol (0.5 mg) and [^3H]sitostanol (0.2 microCi) in 15 microl of olive oil was fed to mice (10-12 weeks old). Feces were collected for 24 hours. The cholesterol absorption ratio was calculated as: % absorption={1−[fecal(^14C/^3H)]/administered(^14C/^3H)}×100. In some cases, mice were sacrificed, plasma collected, and radioactivity counted. Small intestines (from duodenum to ileum) were washed and cut into 2 cm segments. Each of these, as well as a part of the liver, were digested and radioactivity counted individually.
Next, the amounts of [^14C]cholesterol present in the intestine and those transported to plasma, liver, and bile in 24 hours were measured after a single bolus of radiolabeled cholesterol.

[1] = myriocin-treated mice vs controls

CCCCCCC(=O)CCCCCC/C=C/C[C@@H](O)[C@H](O)[C@@](N)(CO)C(=O)O [Myriocin, myriocin]
decrease of ABCA1 mRNA levels (ABCA1 mRNA; WT mice): 20%
decrease of ABCA1 mRNA levels (ABCA1 mRNA; apoE KO mice): 18%
decrease of ABCA1 mRNA levels compared with controls (ABCA1 mRNA; WT mice): 48%
decrease of ABCA1 mRNA levels compared with controls (ABCA1 mRNA; apoE KO mice): 39%
morphology / pathological changes of the small intestine (gastrointestinal toxicity) (small intestine): no pathological changes; also recorded: intact villi, epithelia, enterocytes, goblet cells, and brush borders
enterocyte Chol (cholesterol) (enterocytes; WT mice, mean ± SD, N=5-7): 16.2 ± 1.2 microg/mg protein
enterocyte PC (phosphatidylcholine) (enterocytes; WT mice, mean ± SD, N=5-7): 27.9 ± 2.3 microg/mg protein
enterocyte SM (sphingomyelin) (enterocytes; WT mice, mean ± SD, N=5-7): 6.2 ± 0.9 microg/mg protein
enterocyte TG (triglycerol) (enterocytes; WT mice, mean ± SD, N=5-7): 11.1 ± 1.9 microg/mg protein
SM levels in enterocytes, in words (enterocytes; [1]): significantly decreases
cellular cholesterol, phosphatidylcholine, or triglyceride levels in enterocytes, in words (enterocytes; [1]): no effect
ABCG5 mRNA levels (printed ABCG5/G8) (ABCG5 mRNA; liver): no influence
increase of ABCG5 mRNA levels compared with controls (ABCG5 mRNA; WT mice): 52%
increase of ABCG5 mRNA levels compared with controls (ABCG5 mRNA; apoE KO mice): 69%
[14C]cholesterol in Bile (cholesterol absorption; ApoE KO mice): 2284 ± 521 dpm/ml
[14C]cholesterol in Intestine (cholesterol absorption; ApoE KO mice): 4158 ± 499 dpm/g
[14C]cholesterol in Liver (cholesterol absorption; ApoE KO mice): 3337 ± 649 dpm/g
[14C]cholesterol in Plasma (cholesterol absorption; ApoE KO mice): 1350 ± 142 dpm/ml
[14C]cholesterol in Bile (cholesterol absorption; WT mice): 2108 ± 394 dpm/ml
[14C]cholesterol in Intestine (cholesterol absorption; WT mice): 5237 ± 478 dpm/g
[14C]cholesterol in Liver (cholesterol absorption; WT mice): 4131 ± 575 dpm/g
[14C]cholesterol in Plasma (cholesterol absorption; WT mice): 1734 ± 390 dpm/ml
